Non-standard residues stand in square brackets, D forms with d. Residues, ends and D or L forms follow the SMILES beside them. *: point of attachment. Dolaproine = CO[C@@H]([C@@H]1CCCN1)[C@@H](C)C(=O)O; Dil = CC[C@H](C)[C@H](NC)[C@@H](CC(=O)O)OC; NMe2Val = CC(C)[C@@H](C(=O)*)N(C)C; NH(3-hydroxypropyl) = OCCCN*

Results on one compound are retold here after patent US9849191B2, “Protein-polymer-drug conjugates” (MERSANA THERAPEUTICS, INC., priority 2013, dated 2017).

The data set is described as follows: Tolerability of Auristatin F-hydroxypropylamide (MTD study). Type of data set: in vivo, mice. To be noted: n=6. The source says: The vehicle control group received physiological saline.

As to `CC[C@H](C)[C@@H]([C@@H](CC(=O)N1CCC[C@H]1[C@H](OC)[C@@H](C)C(=O)N[C@@H](Cc1ccccc1)C(=O)NCCCO)OC)N(C)C(=O)[C@@H](NC(=O)[C@H](C(C)C)N(C)C)C(C)C` [AF-HPA, auristatin F hydroxypropyl amide] (NMe2Val-V[Dil][Dolaproine]F-{NH(3-hydroxypropyl)}), the Mortality or morbidity is, setting by setting: (3.2 mg/kg single IV dose) 1 animal died on day 7, 3; (4.7 mg/kg single IV dose) 1 animal died on Day 3, 1.
